Measurements taken from ChEMBL document CHEMBL3774317, “Design and synthesis of novel tamoxifen analogues that avoid CYP2D6 metabolism” (Eur J Med Chem, 2016).

Assays:
Type in all cases: functional
MCF7 = test: Cytotoxicity against human MCF7 cells assessed as cell growth at 10^-4 M after 48 hrs by SRB assay; conditions: MCF7, 48 h, read-out: Activity
[1] = Cytotoxicity against human Hs 578T cells assessed as cell growth at 10^-8 M after 48 hrs by SRB assay; conditions: read-out: Activity
[2] = Cytotoxicity against human SKOV3 cells assessed as cell growth at 10^-8 M after 48 hrs by SRB assay; conditions: SK-OV-3, 48 h, read-out: Activity
A549 = test: Cytotoxicity against human A549 cells assessed as cell growth at 10^-8 M after 48 hrs by SRB assay; conditions: A549, 48 h, read-out: Activity
[3] = Cytotoxicity against human LOXIMVI cells assessed as cell growth at 10^-7 M after 48 hrs by SRB assay; conditions: LOX IMVI, read-out: Activity
NCI-H322M [4] = test: Cytotoxicity against human NCI-H322M cells assessed as cell growth at 10^-8 M after 48 hrs by SRB assay; conditions: read-out: Activity
MDA-MB-435 = test: Cytotoxicity against human MDA-MB-435 cells assessed as cell growth at 10^-5 M after 48 hrs by SRB assay; conditions: MDA-MB-435, 48 h, read-out: Activity
K562 = test: Cytotoxicity against human K562 cells assessed as cell growth at 10^-4 M after 48 hrs by SRB assay; conditions: K562, 48 h, read-out: Activity
ACHN = test: Cytotoxicity against human ACHN cells assessed as cell growth at 10^-8 M after 48 hrs by SRB assay; conditions: read-out: Activity
[5] = Cytotoxicity against human HCT116 cells assessed as cell growth at 10^-7 M after 48 hrs by SRB assay; conditions: HCT-116, 48 h, read-out: Activity
MDA-MB-231 = test: Cytotoxicity against human MDA-MB-231 cells assessed as cell growth at 10^-6 M after 48 hrs by SRB assay; conditions: MDA-MB-231, 48 h, read-out: Activity
[6] = Cytotoxicity against human UACC257 cells assessed as cell growth at 10^-6 M after 48 hrs by SRB assay; conditions: UACC-257, 48 h, read-out: Activity
[7] = Cytotoxicity against human SNB75 cells assessed as cell growth at 10^-8 M after 48 hrs by SRB assay; conditions: SNB-75, 48 h, read-out: Activity
[8] = Cytotoxicity against human TK10 cells assessed as cell growth at 10^-6 M after 48 hrs by SRB assay; conditions: TK-10, 48 h, read-out: Activity
CCRF-CEM = test: Cytotoxicity against human CCRF-CEM cells assessed as cell growth at 10^-8 M after 48 hrs by SRB assay; conditions: read-out: Activity
SN12C = test: Cytotoxicity against human SN12C cells assessed as cell growth at 10^-6 M after 48 hrs by SRB assay; conditions: read-out: Activity
[9] = Cytotoxicity against human HL-60(TB) cells assessed as cell growth at 10^-8 M after 48 hrs by SRB assay; conditions: HL-60, 48 h, read-out: Activity
KM12 = test: Cytotoxicity against human KM12 cells assessed as cell growth at 10^-5 M after 48 hrs by SRB assay; conditions: KM12, 48 h, read-out: Activity
[10] = Cytotoxicity against human Caki1 cells assessed as cell growth at 10^-5 M after 48 hrs by SRB assay; conditions: CAKI-1, 48 h, read-out: Activity
[11] = Cytotoxicity against human PC3 cells assessed as cell growth at 0.5 uM after 48 hrs by SRB assay; conditions: PC-3, 48 h, read-out: Activity
[12] = Cytotoxicity against human SF268 cells assessed as cell growth at 0.5 uM after 48 hrs by SRB assay; conditions: SF-268, 48 h, read-out: Activity
[13] = Cytotoxicity against human SNB19 cells assessed as cell growth at 50 nM after 48 hrs by SRB assay; conditions: SNB-19, 48 h, read-out: Activity
HT-29 = test: Cytotoxicity against human HT-29 cells assessed as cell growth at 5 nM after 48 hrs by SRB assay; conditions: HT-29, 48 h, read-out: Activity
SR = test: Cytotoxicity against human SR cells assessed as cell growth at 50 uM after 48 hrs by SRB assay; conditions: read-out: Activity
[14] = Cytotoxicity against human RXF393 cells assessed as cell growth at 50 nM after 48 hrs by SRB assay; conditions: RXF 393, 48 h, read-out: Activity
NCI-H322M [15] = test: Cytotoxicity against human NCI-H322M cells assessed as cell growth at 0.5 uM after 48 hrs by SRB assay; conditions: read-out: Activity
SK-MEL-28 [16] = test: Cytotoxicity against human SK-MEL-28 cells assessed as cell growth at 5 uM after 48 hrs by SRB assay; conditions: SK-MEL-28, 48 h, read-out: Activity
[17] = Cytotoxicity against human SF295 cells assessed as cell growth at 5 uM after 48 hrs by SRB assay; conditions: SF-295, 48 h, read-out: Activity
[18] = Cytotoxicity against human UACC257 cells assessed as cell growth at 5 nM after 48 hrs by SRB assay; conditions: UACC-257, 48 h, read-out: Activity
EKVX = test: Cytotoxicity against human EKVX cells assessed as cell growth at 50 uM after 48 hrs by SRB assay; conditions: read-out: Activity
[19] = Cytotoxicity against human OVCAR5 cells assessed as cell growth at 5 uM after 48 hrs by SRB assay; conditions: OVCAR-5, 48 h, read-out: Activity
Malme-3M = test: Cytotoxicity against human MALME-3M cells assessed as cell growth at 0.5 uM after 48 hrs by SRB assay; conditions: read-out: Activity
[20] = Cytotoxicity against human PC3 cells assessed as cell growth at 50 nM after 48 hrs by SRB assay; conditions: PC-3, 48 h, read-out: Activity
A498 = test: Cytotoxicity against human A498 cells assessed as cell growth at 5 uM after 48 hrs by SRB assay; conditions: A498, 48 h, read-out: Activity
MDA-MB-468 = test: Cytotoxicity against human MDA-MB-468 cells assessed as cell growth at 0.5 uM after 48 hrs by SRB assay; conditions: MDA-MB-468, 48 h, read-out: Activity
786-0 = test: Cytotoxicity against human 786-0 cells assessed as cell growth at 50 uM after 48 hrs by SRB assay; conditions: 786-0, 48 h, read-out: Activity
[21] = Cytotoxicity against human HCT15 cells assessed as cell growth at 0.5 uM after 48 hrs by SRB assay; conditions: HCT-15, 48 h, read-out: Activity
SK-MEL-28 [22] = test: Cytotoxicity against human SK-MEL-28 cells assessed as cell growth at 50 nM after 48 hrs by SRB assay; conditions: SK-MEL-28, 48 h, read-out: Activity
[23] = Cytotoxicity against human OVCAR5 cells assessed as cell growth at 50 uM after 48 hrs by SRB assay; conditions: OVCAR-5, 48 h, read-out: Activity
[24] = Cytotoxicity against human SF268 cells assessed as cell growth at 50 uM after 48 hrs by SRB assay; conditions: SF-268, 48 h, read-out: Activity
[25] = Cytotoxicity against human HL-60(TB) cells assessed as cell growth at 5 nM after 48 hrs by SRB assay; conditions: HL-60, 48 h, read-out: Activity

In the case of `C/C(=C(/c1ccc(O)cc1)c1ccc(OCCN2CCCC2)cc1)c1ccccc1`, the growth at 100 µM (MCF7) is reported as -66%, the growth at 0.01 µM [1] is reported as 100% and the growth at 0.01 µM [2] is reported as 88%. For the same compound, the growth at 0.01 µM (A549) was 99%, the growth at 0.1 µM [3] was 95% and the growth at 0.01 µM (NCI-H322M [4]) was 97%. The growth at 10 µM (MDA-MB-435) was -48%, the growth at 100 µM (K562) was -70% and the growth at 0.01 µM (ACHN) was 93%. The growth at 0.1 µM [5] was 101%, the growth at 1 µM (MDA-MB-231) was 122% and the growth at 1 µM [6] was 104%. The growth at 0.01 µM [7] was 72%, the growth at 1 µM [8] was 95% and the growth at 0.01 µM (CCRF-CEM) was 110%. The growth at 1 µM (SN12C) was 101%, the growth at 0.01 µM [9] was 97% and the growth at 10 µM (KM12) was 12%. The growth at 10 µM [10] was 17%.

`CCCCCCCCCC(=O)Oc1ccc(/C(=C(/C)c2ccccc2)c2ccc(OCCN3CCCC3)cc2)cc1` showed a growth at 0.5 µM [11] of 86%, a growth at 0.5 µM [12] of 73% and a growth at 0.05 µM [13] of 98%. It also gave a growth at 0.005 µM (HT-29) of 101%, a growth at 50 µM (SR) of -66% and a growth at 0.05 µM [14] of 100%. It also gave a growth at 0.5 µM (NCI-H322M [15]) of 73%, a growth at 5 µM (SK-MEL-28 [16]) of 89% and a growth at 5 µM [17] of 86%. For the same compound, the growth at 0.005 µM [18] was 95%, the growth at 50 µM (EKVX) was -97% and the growth at 5 µM [19] was 91%. For the same compound, the growth at 0.5 µM (Malme-3M) was 61%, the growth at 0.05 µM [20] was 97% and the growth at 5 µM (A498) was 64%. It also gave a growth at 0.5 µM (MDA-MB-468) of 69%, a growth at 50 µM (786-0) of -84% and a growth at 0.5 µM [21] of 58%. It also gave a growth at 0.05 µM (SK-MEL-28 [22]) of 100%, a growth at 50 µM [23] of -84% and a growth at 50 µM [24] of -72%. For the same compound, the growth at 0.005 µM [25] was 101%.
